Measured values published in patent publication US20260242320A1, “USE OF CANNABIDIOL DERIVATIVE IN PREPARATION OF MEDICAMENT” (priority 2023, published 2026).
“Also recorded” adds a separate entry of the source.

What was measured:
[1] = molecular target: T1, nuclear PKM2 in BV-2 cells (Mus musculus, UniProt P52480); test: Subcellular localization of PKM2; format: cell-based; details: BV-2, LPS 200 ng/mL, 10 μM, 6 h
T1 construct: endogenous in cells; host or cells: BV-2 cells
Method: BV-2 cells were treated with 200 ng/mL LPS and 10 μM CIAC001 for 6 h. Cells were washed, harvested with ice-cold PBS, and centrifuged at 800 g for 5 min at 4° C. Cells were lysed in cytoplasmic lysis buffer (10 mM HEPES pH 7.6, 10 mM KCl, 0.5 mM […], 1.5 mM MgCl2, and 1 mM DTT) plus the protease inhibitor cocktail for 20 min on ice. A final concentration of 0.5% NP40 was added to the lysate and incubated for 2 min on ice. Lysates were centrifuged at 2000 g for 10 min at 4° C., and the supernatants were cytoplasmic lysates. Pellets were washed twice with ice-cold PBS. Nuclear pellets were lysed for 30 min on ice with nuclear lysis buffer (10 mM Tris-HCl pH 7.6, 450 mM NaCl, 2 mM MgCl2, 0.5% NP-40, and 1 mM DTT) plus a protease inhibitor cocktail. Lysates were centrifuged at 12,000 g for 10 min at 4° C., and the supernatants were nuclear lysates. The nuclear lysates were diluted with low-salt buffer (10 mM Tris-HCl pH 7.6 and 2 mM MgCl2) to a final salt concentration of 150 mM in the lysates. The total protein concentrations in the nuclear and cytoplasmic extracts were determined by the BCA assay and then normalized. The lysate supernatants were denatured in 2× Laemmli sample buffer at 100° C. for 8 min for western blotting with the corresponding antibody.

[2] = Respiratory rate determination; format: in vivo, mice; details: CIAC001 20 mg/kg i.p.; THC 10 mg/kg i.p.
Method: (§1) Mice were intraperitoneally injected with 20 mg/kg CIAC001 or 10 mg/kg THC once daily. After 1 h, the mice were anesthetized with isoflurane by a small animal anesthesia machine (R500IE, RWD Life Science Co) on day 2 and day 5. The respiratory rate of mice was recorded three times within 20 s. The weights of mice were recorded every day.

[3] = Pharmacokinetic profiles in brain and plasma after oral administration; format: in vivo, mice; details: male, BALB/c, mouse, 10 mg/kg p.o., read-out: B/P ratio
[4] = Body weight during 7 days of administration; format: in vivo, mice; details: during drug treatment vs vehicle
Method: as §1

morphine-dependent mice = test: Naloxone-precipitated morphine withdrawal jumps; format: in vivo; details: 2 μg/kg, 20 μg/kg, 0.2 mg/kg i.p., 0.2 mg/kg
Method: Mice were intraperitoneally injected with an escalating dose of morphine three times daily for 3 days (5, 20, and 40 mg/kg) to induce addiction. On the fourth day, mice were given morphine (40 mg/kg) or vehicle (5 mL/kg). […] The withdrawal was precipitated by naloxone. Each mouse was placed into a transparent plastic box immediately, and the number of jumps was recorded for 15 min.

lactate in BV-2 culture = test: Extracellular lactic acid assay; format: cell-based; details: BV-2, 10 μM, LPS 200 ng/mL, 12 h
Method: BV-2 cells were seeded at a density of 5×10^5 cells per well in 6-well plates and incubated for 24 h. BV-2 cells were treated with 10 μM CIAC001 or 10 μM Compound 19b in the absence or presence of 200 ng/mL LPS for 12 h. Culture medium was collected and centrifuged (5000 g, 4° C.) for 5 min. The supernates were used for lactic acid contents determination by lactic acid assay kit (A019-2-1, Nanjing Jiancheng Bioengineering Institute).

[5] = molecular target: T2, endogenous PKM2 in BV-2 cell lysate (Mus musculus, UniProt P52480); test: Cellular thermal shift assay (CETSA); format: binding
T2 construct: endogenous in cells; host or cells: BV-2 cells
T2 sequence (P52480 whole entry): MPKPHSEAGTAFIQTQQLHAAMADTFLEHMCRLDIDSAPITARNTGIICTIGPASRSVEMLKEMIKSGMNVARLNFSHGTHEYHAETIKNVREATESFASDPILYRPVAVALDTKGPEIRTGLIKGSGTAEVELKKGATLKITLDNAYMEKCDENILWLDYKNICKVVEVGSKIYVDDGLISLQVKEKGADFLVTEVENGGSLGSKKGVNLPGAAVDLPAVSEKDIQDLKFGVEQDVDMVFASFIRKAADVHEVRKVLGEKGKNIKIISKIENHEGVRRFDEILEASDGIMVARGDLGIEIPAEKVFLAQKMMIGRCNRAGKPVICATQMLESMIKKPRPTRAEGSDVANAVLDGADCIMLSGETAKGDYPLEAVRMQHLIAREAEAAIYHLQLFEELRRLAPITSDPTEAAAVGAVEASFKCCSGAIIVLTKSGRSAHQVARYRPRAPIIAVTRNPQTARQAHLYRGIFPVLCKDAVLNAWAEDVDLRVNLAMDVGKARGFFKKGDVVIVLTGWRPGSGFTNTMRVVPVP
Method: For CETSA experiments, BV-2 cells were seeded at a density of 4×10^5 cells/mL in 10 cm petri dishes. After 24 h, the medium was removed, and cells were washed with cold PBS (3.0 mL) 3 times and harvested by scraping. Cells were then isolated by centrifugation (1000 g, 5 min, 4° C.) and resuspended in cell lysis buffer (P0013, Beyotime Biotechnology) with the 1% protease inhibitor cocktail and then incubated on ice for 10 min. The lysates were centrifuged (12,000 g, 15 min, 4° C.), and the supernatants were collected. CIAC001 (50 μM) or vehicle control was incubated with BV-2 cell lysate supernatant for 2 h at 20° C. The lysate supernatants were divided into 60 μL each in microtubes. The lysates were heated at different temperatures (37-72° C.) for 5 min on a Long Gene A200 thermal cycler and cooled down at 25° C. for another 3 min. The samples were stored on ice until centrifugation (20,000 g, 4° C., 20 min) to remove precipitates. The lysate supernatants were denatured in 2× Laemmli sample buffer at 100° C. for 8 min for western blotting with the PKM2 antibody

T1 sequence (P52480 whole entry): as above

## C=C(C)[C@@H]1CCC(C)=C[C@H]1c1c(O)cc(C(C)n2nccn2)cc1O (stereo partly drawn) [CIAC001, (1′R,2′R)-4-(1-(2H-1,2,3-Triazol-2-yl)ethyl)-5′-methyl-2′-(prop-1-en-2-yl)-1′,2′,3′,4′-tetrahydro-[1,1′-biphenyl]-2,6-diol]
[1]
  LPS-induced translocation of nuclear PKM2: completely reversed; also recorded: inhibited LPS-induced translocation of nuclear PKM2
[2]
  respiratory rate: did not affect the respiratory rate
[3]; 0.083 h
  Kp at 0.083 h: 2.07 ± 0.907
[3]; 0.25 h
  Kp at 0.25 h: 2.78 ± 0.389
[4]
  body weights: did not change
morphine-dependent mice
  naloxone-precipitated withdrawal jumps: dose-dependently attenuated; also recorded: ameliorated
Lactate in BV-2 culture
  LPS-induced lactate release: significantly inhibited
[5]
  ΔTm at 50 µM: 3.9 ± 1.3 °C
